# Values of other authors in PMC10126514, “The interaction of peptide inhibitors and Aβ protein: Binding mode analysis, inhibition of the formation of Aβ aggregates, and then exert neuroprotective effects” (Frontiers in Aging Neuroscience, 2023).
# Settings: ref Wang et al., 2019, Behl et al., 2020, Tolar et al.; cited from earlier work
structure (smiles),measurement,value
CCN(C)C(=O)Oc1cccc([C@H](C)N(C)C)c1 [rivastigmine],Potential side effects,"Diarrhea, vomiting, nausea, and abdominal cramps"
